Here are results for 17 compounds from ChEMBL document CHEMBL4513161, “CO-ADD screening of MMV (CH) - Pandemic Response Box” (2021).

Structures are written as SMILES. Values after ≈ are worked out from the molar mass of the structure shown. Counter-ions that a name gives are not always drawn. Bounds are passed on as bounds.

The subject of one assay is Acinetobacter baumannii. Kind of assay: microbe, parasite or virus in culture. The settings on record: ATCC 19606, 18 h, ASSAY_TEST Inhibition of Bacterial Growth, detection method Absorption (OD600), MEDIA CAMHB, plate type 384well, NBS, CORNING #3640.
Assay [1] has as its system Pseudomonas aeruginosa. The experiment in a line: Antibacterial activity against Pseudomonas aeruginosa PAO397 [PAO1 d(mexAB-oprM) d(mexCD-oprJ) d(mexEF-oprN) d(mexJKL) d(mexXY) d(opmH)] (CO-ADD:GN_211); MIC in CAMBH media using NBS plates, by OD(600). The format is functional. The conditions noted are these: ASSAY_TEST Inhibition of Bacterial Growth, detection method Absorption (OD600), MEDIA CAMHB, plate type 384well, CORNING #3640, time 18 hr.

A further assay relates to Staphylococcus aureus. Kind of assay: microbe, parasite or virus in culture. The settings on record: ATCC 43300, 18 h, ASSAY_TEST Inhibition of Bacterial Growth, detection method Absorption (OD600), MEDIA CAMHB, plate type 384well, NBS, CORNING #3640.
The next assay concerns Candida albicans. Kind of assay: microbe, parasite or virus in culture. The settings on record: ATCC 90028, ASSAY_TEST Inhibition of Fungal Growth, detection method Absorption (OD530), plate type 384well, NBS, CORNING #3640.
For another assay, the system named is Klebsiella pneumoniae. The experiment in a line: microbe, parasite or virus in culture. The settings on record: ATCC 700603, 18 h, ASSAY_TEST Inhibition of Bacterial Growth, detection method Absorption (OD600), MEDIA CAMHB, plate type 384well, NBS, CORNING #3640.
The next assay relates to Escherichia coli. The experiment in a line: microbe, parasite or virus in culture. The settings on record: ATCC 25922, 18 h, ASSAY_TEST Inhibition of Bacterial Growth, detection method Absorption (OD600), MEDIA CAMHB, plate type 384well, NBS, CORNING #3640.
The test system of assay [2] is Pseudomonas aeruginosa. Kind of assay: microbe, parasite or virus in culture. The conditions noted are these: ATCC 27853, 18 h, ASSAY_TEST Inhibition of Bacterial Growth, detection method Absorption (OD600), MEDIA CAMHB, plate type 384well, NBS, CORNING #3640.
Description: Antibacterial activity against Pseudomonas aeruginosa ATCC 27853 (CO-ADD:GN_042); MIC in CAMBH media using NBS plates, by OD(600)
Another assay deals with HEK293. Kind of assay: cells. The format is functional, Homo sapiens, ATCC CRL1573. The settings on record: Homo sapiens, ATCC CRL1573, HEK293; ASSAY_TEST Inhibition of Cell Viability; detection method Resazurin; Fluorescence (ex560/em590); MEDIA DMEM with 10% FBS; plate type 384well; TC; CORNING #3712; time 18 hr; read-out: CC50.

Description for Acinetobacter baumannii: Antibacterial activity against Acinetobacter baumannii ATCC 19606 (CO-ADD:GN_034); MIC in CAMBH media using NBS plates, by OD600
Description for Candida albicans: Antifungal activity against Candida albicans ATCC 90028 (CO-ADD:FG_001); MIC in YNB media using NBS plates, by OD630
Description for Cryptococcus neoformans: Antifungal activity against Cryptococcus neoformans H99 ATCC 208821 (CO-ADD:FG_002); MIC in YNB media using NBS plates, by Resazurin OD(600-570)
Description for Escherichia coli: Antibacterial activity against Escherichia coli ATCC 25922 (CO-ADD:GN_001); MIC in CAMBH media using NBS plates, by OD(600)
Description for Klebsiella pneumoniae: Antibacterial activity against Klebsiella pneumoniae MDR ATCC 70063 (CO-ADD:GN_003); MIC in CAMBH media using NBS plates, by OD(600)
Description for Staphylococcus aureus: Antibacterial activity against Staphylococcus aureus MRSA ATCC 43300 (CO-ADD:GP_020); MIC in CAMBH media, using NBS plates, by OD(600)

A word on the CC50: it is the concentration giving 50% cytotoxicity. On to `OCCCCn1cnc2c(O)nc(NCc3ccc(Cl)c(Cl)c3)nc21`, for which the MIC against Acinetobacter baumannii, in the assay with Pseudomonas aeruginosa [1], against Staphylococcus aureus, in the assay on Candida albicans, in the assay on Klebsiella pneumoniae and against Escherichia coli was > 20 µM in each case. For the same compound, the MIC against Pseudomonas aeruginosa [2] and against Cryptococcus neoformans was > 20 µM throughout. In the assay with HEK293, the CC50 was > 20 µM.
Consider `N=C(N)NCCCCC(=O)Nc1cc(C(F)(F)F)cc(NC(=O)c2cc(C(=O)Nc3cc(C(F)(F)F)cc(NC(=O)CCCCNC(=N)N)c3O[C@@H]3CCNC3)ncn2)c1O[C@@H]1CCNC1`, for which the MIC was 5 µM (≈ 4.68 µg/mL) against Acinetobacter baumannii; 5 µM (≈ 4.68 µg/mL) against Pseudomonas aeruginosa [1]; ≤ 0.156 µM in the assay with Staphylococcus aureus; > 20 µM in the assay with Candida albicans; 2.5 µM (≈ 2.34 µg/mL) against Klebsiella pneumoniae; 1.25 µM (≈ 1.17 µg/mL) against Escherichia coli. Besides, the MIC with Pseudomonas aeruginosa [2] turned out to be 10 µM (≈ 9.37 µg/mL); in the assay on Cryptococcus neoformans it was 0.312 µM (≈ 0.293 µg/mL). For the same compound, the 50% cytotoxic concentration (CC50) in the assay on HEK293 is > 20 µM.
As to `COc1ccc2nc(-c3ccccc3)cc(O)c2c1`, the MIC with Acinetobacter baumannii, against Pseudomonas aeruginosa [1], against Staphylococcus aureus, against Candida albicans, with Klebsiella pneumoniae and against Escherichia coli was > 20 µM in each case. Moreover, the MIC in the assay with Pseudomonas aeruginosa [2] and against Cryptococcus neoformans was > 20 µM throughout. Also, the CC50 in the assay with HEK293 is 2.85 µM.
Regarding `CC(C)c1cc2c(cc1S(=O)(=O)O)[C@@]1(C)CCC[C@@](C)(C(=O)O)[C@@H]1CC2` [ECABET], the MIC in the assay with Acinetobacter baumannii, in the assay on Pseudomonas aeruginosa [1], in the assay on Staphylococcus aureus, against Candida albicans, against Klebsiella pneumoniae and in the assay with Escherichia coli was > 20 µM throughout. Further, the MIC in the assay on Pseudomonas aeruginosa [2] and against Cryptococcus neoformans was > 20 µM in each case. Besides, in the assay with HEK293, the CC50 is > 20 µM.
In the case of `O=C(Nc1ncc(Cc2cccc3ccccc23)s1)C1CCCCC1`, the MIC with Acinetobacter baumannii, with Pseudomonas aeruginosa [1], with Staphylococcus aureus, in the assay with Candida albicans, with Klebsiella pneumoniae and with Escherichia coli was > 20 µM each time. In addition, the MIC with Pseudomonas aeruginosa [2] and in the assay with Cryptococcus neoformans was > 20 µM throughout. Moreover, in the assay on HEK293, the CC50 was > 20 µM.
As to `COc1ccc(CNC(=O)C2CCN([C@H](C)c3cccc4ccccc34)CC2)cc1`, the MIC against Acinetobacter baumannii, against Pseudomonas aeruginosa [1], with Staphylococcus aureus, with Candida albicans, with Klebsiella pneumoniae and against Escherichia coli was > 20 µM in each case. The MIC against Pseudomonas aeruginosa [2] and in the assay with Cryptococcus neoformans was > 20 µM each time. In addition, the CC50 with HEK293 is > 20 µM.
For the compound `Nc1cccc(-c2nc(N)nc(NC3Cc4ccccc4C3)n2)c1`, the MIC with Acinetobacter baumannii, in the assay with Pseudomonas aeruginosa [1], in the assay on Staphylococcus aureus, against Candida albicans, in the assay with Klebsiella pneumoniae and in the assay on Escherichia coli was > 20 µM each time. The MIC against Pseudomonas aeruginosa [2] and against Cryptococcus neoformans was > 20 µM throughout. In the assay on HEK293, the cytotoxic concentration (CC50) was > 20 µM.
For `NC(=O)c1c(N)sc2c1CCCCC2`, the MIC against Acinetobacter baumannii, against Pseudomonas aeruginosa [1], in the assay on Staphylococcus aureus, with Candida albicans, against Klebsiella pneumoniae and with Escherichia coli was > 20 µM throughout. Also, the MIC against Pseudomonas aeruginosa [2] and in the assay on Cryptococcus neoformans was > 20 µM in each case. In addition, in the assay on HEK293, the CC50 is > 20 µM.
`COc1cc(C)c2c(Oc3cccc(C(F)(F)F)c3)c(OC)cc(NC(C)CCCN)c2n1` (stereo not drawn) [TAFENOQUINE SUCCINATE]: the MIC was > 20 µM in the assay on Acinetobacter baumannii; > 20 µM in the assay with Pseudomonas aeruginosa [1]; 10 µM against Staphylococcus aureus; > 20 µM against Candida albicans; > 20 µM against Klebsiella pneumoniae; > 20 µM against Escherichia coli. For the same compound, the MIC in the assay with Pseudomonas aeruginosa [2] and against Cryptococcus neoformans was > 20 µM throughout. The cytotoxic concentration (CC50) with HEK293 came out at 6.36 µM.
In the case of `CCOC(=O)N[C@@H]1CC[C@@H]2[C@@H](C1)C[C@H]1C(=O)O[C@H](C)[C@H]1[C@H]2/C=C/c1ccc(-c2cccc(F)c2)cn1` [VORAPAXAR], the MIC with Acinetobacter baumannii, in the assay on Pseudomonas aeruginosa [1], in the assay with Staphylococcus aureus, against Candida albicans, with Klebsiella pneumoniae and with Escherichia coli was > 20 µM throughout. Also, the MIC with Pseudomonas aeruginosa [2] and with Cryptococcus neoformans was > 20 µM in each case. Moreover, in the assay with HEK293, the CC50 was > 20 µM.
`CC[C@@H]1C(=O)OC[C@@H]1Cc1cncn1C` [PILOCARPINE HYDROCHLORIDE]: the MIC against Acinetobacter baumannii, in the assay with Pseudomonas aeruginosa [1], against Staphylococcus aureus, with Candida albicans, with Klebsiella pneumoniae and in the assay on Escherichia coli was > 20 µM each time. In addition, the MIC against Pseudomonas aeruginosa [2] and in the assay on Cryptococcus neoformans was > 20 µM each time. In addition, the half-maximal cytotoxic concentration (CC50) with HEK293 was > 20 µM.
For the compound `NC[C@H]1OB(O)c2c(OCCCO)cccc21`, the MIC against Acinetobacter baumannii is 5 µM (≈ 1.19 µg/mL); in the assay on Pseudomonas aeruginosa [1] it was 2.5 µM (≈ 0.593 µg/mL); against Staphylococcus aureus it was 20 µM (≈ 4.74 µg/mL); in the assay with Candida albicans, > 20 µM; against Klebsiella pneumoniae it was 2.5 µM (≈ 0.593 µg/mL); with Escherichia coli, 2.5 µM (≈ 0.593 µg/mL). Further, the MIC with Pseudomonas aeruginosa [2] was 5 µM (≈ 1.19 µg/mL); against Cryptococcus neoformans, > 20 µM. Further, in the assay on HEK293, the CC50 was > 20 µM.
Consider `O=C(O)CSc1cc(NS(=O)(=O)c2cccc3cccnc23)c2ccccc2c1O`, for which the MIC against Acinetobacter baumannii, against Pseudomonas aeruginosa [1], in the assay with Staphylococcus aureus, against Candida albicans, with Klebsiella pneumoniae and against Escherichia coli was > 20 µM throughout. The MIC in the assay on Pseudomonas aeruginosa [2] and against Cryptococcus neoformans was > 20 µM in each case. The CC50 with HEK293 is > 20 µM.
As to `CNc1nc(=O)[nH]cc1F`, the MIC with Acinetobacter baumannii, against Pseudomonas aeruginosa [1], with Staphylococcus aureus, against Candida albicans, with Klebsiella pneumoniae and against Escherichia coli was > 20 µM in each case. The MIC against Pseudomonas aeruginosa [2] and with Cryptococcus neoformans was > 20 µM throughout. Moreover, the CC50 in the assay with HEK293 was > 20 µM.
In the case of `COc1ccc(NC(=O)c2cc3ccccn3n2)cc1`, the MIC in the assay with Acinetobacter baumannii, in the assay with Pseudomonas aeruginosa [1], with Staphylococcus aureus, in the assay with Candida albicans, against Klebsiella pneumoniae and in the assay on Escherichia coli was > 20 µM each time. The MIC against Pseudomonas aeruginosa [2] and with Cryptococcus neoformans was > 20 µM in each case. Further, the CC50 in the assay on HEK293 is > 20 µM.
On to `O=C(NC12CC3CC(CC(C3)C1)C2)c1cc2ccccc2[nH]1`, for which the MIC against Acinetobacter baumannii, with Pseudomonas aeruginosa [1], against Staphylococcus aureus, against Candida albicans, with Klebsiella pneumoniae and in the assay with Escherichia coli was > 20 µM in each case. For the same compound, the MIC against Pseudomonas aeruginosa [2] and in the assay on Cryptococcus neoformans was > 20 µM each time. Moreover, the CC50 in the assay on HEK293 was > 20 µM.
On to `CC[C@@]1(O)C(=O)OCc2c1cc1n(c2=O)Cc2cc3c([N+](=O)[O-])cccc3nc2-1` [RUBITECAN], for which the MIC against Acinetobacter baumannii, against Pseudomonas aeruginosa [1], in the assay with Staphylococcus aureus, against Candida albicans, with Klebsiella pneumoniae and against Escherichia coli was > 20 µM throughout. Also, the MIC in the assay with Pseudomonas aeruginosa [2] and in the assay with Cryptococcus neoformans was > 20 µM each time. Further, the CC50 in the assay on HEK293 came to 0.695 µM.
